What was measured:
[1] = tested on: Plasmodium falciparum 3D7; assay: In vitro inhibitory activity against erythrocytic stages of P. falciparum (3H-hypoxanthine incorporation assay); assay type: cell-based; conditions: intraerythrocytic stages of Plasmodium falciparum; average of three independent experiments ± standard errors; read-out: IC50 Pf3D7
Method: (§1) In vitro inhibitory activity against the erythrocytic stages of P. falciparum of overexpressing mutants was determined by using the SYBR green assay and the ^3H-hypoxanthine incorporation assay was used for IC50 determination as previously described. Plasmodium falciparum 3D7 was cultured using standard methods, and synchronized using 5% sorbitol as previously described. Compounds were dissolved in DMSO and added at different concentrations (8–500 ng/ml) to 48 h post-synchronization parasites. […] Chloroquine dissolved in water was used as standard drug. Experiments were carried out at least twice independently and the different concentrations were tested in duplicate. IC50 values were calculated using a four-parameter logistic regression model using data obtained from two or three independent experiments as indicated.

[2] = biological target: T1, PfdUTPase (Plasmodium falciparum, UniProt Q8II92); assay: Inhibition of Plasmodium dUTPase (Ki); assay type: biochemical; conditions: for Ki: average of three independent experiments ± standard errors
T1 construct: made in house
T1 sequence (Q8II92 1-173): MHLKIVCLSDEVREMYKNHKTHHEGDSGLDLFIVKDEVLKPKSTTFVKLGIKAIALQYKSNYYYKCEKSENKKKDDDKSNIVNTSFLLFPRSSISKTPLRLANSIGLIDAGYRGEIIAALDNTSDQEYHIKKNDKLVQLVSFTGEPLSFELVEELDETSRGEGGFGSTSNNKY

[3] = biological target: T2, HsdUTPase (Homo sapiens, UniProt P33316); assay: Inhibition of human dUTPase (Ki); assay type: biochemical; conditions: average of three independent experiments ± standard errors
T2 construct: made in house
T2 sequence (P33316 1-164 isoform P33316-2): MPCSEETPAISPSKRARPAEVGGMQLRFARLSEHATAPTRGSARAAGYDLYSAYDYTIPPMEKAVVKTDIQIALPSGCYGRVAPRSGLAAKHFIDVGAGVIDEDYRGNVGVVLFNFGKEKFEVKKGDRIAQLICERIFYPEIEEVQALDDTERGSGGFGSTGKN
Source text: Table 1 Ki values for Plasmodium and human dUTPases and IC50s for intraerythrocytic stages of Plasmodium falciparum | column: Ki HsdUTPase

[4] = tested on: Plasmodium falciparum lines overexpressing PfdUTPase (PfdUTPase OE); assay: IC50 shift in P. falciparum line overexpressing PfdUTPase (SYBR green assay); assay type: cell-based; conditions: PfdUTPase overexpressing line vs parental line 3D7
Method: as §1
(§2) Subsequently, the IC50 for each cell line with each compound and the fold change relative to the 3D7 IC50 was calculated (Fig. 3a). […] The IC50 for chloroquine as a reference compound was also determined in overexpressing mutants.

[5] = tested on: Plasmodium falciparum lines overexpressing human dUTPase (HsdUTPase OE); assay: IC50 shift in P. falciparum line overexpressing human dUTPase (SYBR green assay); assay type: cell-based; conditions: HsdUTPase overexpressing line vs parental line 3D7
Method: as §1, §2

[6] = tested on: dTTP and dUTP pools in Plasmodium cultures; assay: Intracellular dTTP and dUTP levels by modified DNA polymerase assay; assay type: cell-based, Plasmodium falciparum; conditions: schizont stage, 20 h of treatment, 1× and 3× the IC50; effect at high concentrations
Method: The effect of different dUTPase inhibitors on dUTP and dTTP levels from P. falciparum cells was measured using a modified DNA polymerase assay. The template sequence employed was the oligonucleotide 5′-[…]-3′ and as primer sequence the oligonucleotide 5′-CCGCCTCCACCGCC-3′ was used. Saponin-isolated parasite pellets (5 × 10^8 parasites per sample) were repeatedly washed in PBS and frozen at − 80 °C. Frozen pellets were extracted with 200 μl of cold methanol/water (1:1, v/v) vigorously by vortexing, freeze-thawed twice and centrifuged. Supernatants were collected and pellets were re-extracted with the same volume of methanol/water as previously mentioned and newly centrifuged. The combined supernatants were dried under vacuum. The residues were dissolved in 40 μl either of dUTPase buffer (34 mM Tris–HCl pH 7.8, 5 mM MgCl2) or dUTPase buffer plus 30 ng of HsdUTPase and incubated for 20 min at 37 °C. To stop the reaction, 60 μl of 100% methanol were added and the samples were incubated for 1 h at − 20 °C, followed by centrifugation for 20 min at 16,000×g. The supernatants were again dried under vacuum and the DNA polymerase assay used was modified from that of Horowitz et al.. The DNA polymerase I buffer contained 34 mM Tris–HCl pH 7.8, and 50 mM MgCl2. After incubation with DNA polymerase I, 30 μl of each sample were incubated for 30 min at 4 °C with 470 μl of DNA polymerase I buffer containing 10% (v/v) trichloroacetic acid to precipitate the DNA. The solution was blotted onto a glass microfibre filter GF/C (Whatman) and each filter was washed under vacuum with 30 ml of a solution of 5% (v/v) trichloroacetic acid and 3 ml of ethanol, dried and the radioactivity was counted using a LS 6500 Multi-Purpose Scintillation Counter (Beckman Coulter).
The levels of intracellular dTTP and dUTP were measured using the DNA polymerase based assay in Plasmodium cultures incubated with compounds 3 and 4. Parasites for dUTP and dTTP measurements were obtained from highly synchronized cultures in schizont stage after 20 h of treatment with concentrations of compound that corresponded with 1× and 3× the IC50 concentration.

Compound | IC50 [1] | Ki [2] | Ki [3] | Fold change in IC50 relative to the 3D7 IC50 [4] | Fold change in IC50 relative to the 3D7 IC50 [5] | dTTP pool [6] | dUTP pool [6] | Activity against the enzyme relative to compound 3 ([2]; PfdUTPase, compared with compound 3)
3- N-(4-(carboethoxy)butylurea)-5-tritylamino-2,3-dideoxy-β-D-xylofuranosyluracil [Compound 1] | 40 ± 10 nM | 4730 ± 160 nM | > 100000 nM |  |  |  |  | 
CCOC(=O)CCCNC(=O)NCC(CCn1ccc(=O)[nH]c1=O)CNC(c1ccccc1)(c1ccccc1)c1ccccc1 (centres unmarked) [Compound 2, Ethyl 4-(3-(4-(2,4-dioxo-3,4-dihydropyrimin-1(2H)-yl)-2-((tritylamino)methyl)butyl)uredio)butanoate] | 60 ± 10 nM | 560 ± 80 nM | 12200 ± 6910 nM |  |  |  |  | 
O=C(Nc1ccc(C(=O)O)cc1)O[C@H]1C[C@H](n2ccc(=O)[nH]c2=O)O[C@@H]1CNC(c1ccccc1)(c1ccccc1)c1ccccc1 [Compound 3, 3’-O-(4-(carboxy)phenylurethane)-5’-N-tritylamino-2’,5’-dideoxyuridine] | 120 ± 50 nM | 79 ± 22 nM | > 100000 nM | 3.8 fold | 2.3 fold | significant decrease | increase | 
CCOC(=O)c1ccc(NC(=O)NCC(CCn2ccc(=O)[nH]c2=O)CNC(c2ccccc2)(c2ccccc2)c2ccccc2)cc1 (centres unmarked) [Compound 4, Ethyl 4-(3-(4-(2,4-dioxo-3,4-dihydropyrimin-1(2H)-yl)-2-((tritylamino)methyl)butyl)uredio)benzoate] | 150 ± 30 nM | 610 ± 70 nM | > 100000 nM | 4 fold | 2.5 fold | significant decrease | increase | eightfold less active
CCN(CC)CCCC(C)Nc1ccnc2cc(Cl)ccc12 (centres unmarked) [chloroquine, Chloroquine, reference compound] |  |  |  | No significant effects | No significant effects |  |  | 

From publication PMC6889535, “Validation of Plasmodium falciparum dUTPase as the target of 5′-tritylated deoxyuridine analogues with anti-malarial activity” (Malaria Journal, 2019)
